Reference: US10815230B2, “Casein kinase 1 delta inhibitor” (ELECTROPHORETICS LIMITED, priority 2015, dated 2020)

Key:
Assay in all cases: KINOMEscan binding assay
Conditions in all cases: read-out: % Ctrl @ 10000 nM
[1] = biological target: ABL1 (E255K) phosphorylated (Homo sapiens, UniProt P00519, E255K)
[2] = biological target: ABL1 (Q252H) non-phosphorylated (Homo sapiens, UniProt P00519, Q252H)
[3] = biological target: ABL1 (Y253F) phosphorylated (Homo sapiens, UniProt P00519, Y253F)
ACVR1 = ACVR1 (Homo sapiens, UniProt Q04771)
BTK = BTK (Homo sapiens, UniProt Q06187)
CAMK2B = CAMK2B (Homo sapiens, UniProt Q13554)
CDK11 = CDK11 (Homo sapiens, UniProt Q9BWU1)
Sequence of CDK11 (Q9BWU1 whole entry): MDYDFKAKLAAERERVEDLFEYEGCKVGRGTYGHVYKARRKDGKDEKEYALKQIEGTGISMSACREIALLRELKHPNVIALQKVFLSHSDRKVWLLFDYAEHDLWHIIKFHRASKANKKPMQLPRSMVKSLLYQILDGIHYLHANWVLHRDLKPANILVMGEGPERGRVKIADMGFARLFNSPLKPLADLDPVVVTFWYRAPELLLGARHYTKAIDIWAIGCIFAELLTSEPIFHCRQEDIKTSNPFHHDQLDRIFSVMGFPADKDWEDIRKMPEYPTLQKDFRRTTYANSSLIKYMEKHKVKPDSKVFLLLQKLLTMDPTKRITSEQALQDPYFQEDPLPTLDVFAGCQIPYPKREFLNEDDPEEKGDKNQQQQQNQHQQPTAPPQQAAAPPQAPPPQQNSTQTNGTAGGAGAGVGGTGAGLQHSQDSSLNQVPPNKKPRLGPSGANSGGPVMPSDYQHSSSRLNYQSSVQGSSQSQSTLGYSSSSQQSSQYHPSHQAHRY

CDK8 = CDK8 (Homo sapiens, UniProt P49336)
CDK9 = CDK9 (Homo sapiens, UniProt P50750)
CLK2 = CLK2 (Homo sapiens, UniProt P49760)
DMPK = DMPK (Homo sapiens, UniProt Q09013)
DMPK2 = DMPK2 (Homo sapiens, UniProt Q6DT37)
EGFR (G719S) = EGFR (G719S) (Homo sapiens, UniProt P00533, G719S)
Sequence of EGFR (G719S) (P00533 25-1210 G719S): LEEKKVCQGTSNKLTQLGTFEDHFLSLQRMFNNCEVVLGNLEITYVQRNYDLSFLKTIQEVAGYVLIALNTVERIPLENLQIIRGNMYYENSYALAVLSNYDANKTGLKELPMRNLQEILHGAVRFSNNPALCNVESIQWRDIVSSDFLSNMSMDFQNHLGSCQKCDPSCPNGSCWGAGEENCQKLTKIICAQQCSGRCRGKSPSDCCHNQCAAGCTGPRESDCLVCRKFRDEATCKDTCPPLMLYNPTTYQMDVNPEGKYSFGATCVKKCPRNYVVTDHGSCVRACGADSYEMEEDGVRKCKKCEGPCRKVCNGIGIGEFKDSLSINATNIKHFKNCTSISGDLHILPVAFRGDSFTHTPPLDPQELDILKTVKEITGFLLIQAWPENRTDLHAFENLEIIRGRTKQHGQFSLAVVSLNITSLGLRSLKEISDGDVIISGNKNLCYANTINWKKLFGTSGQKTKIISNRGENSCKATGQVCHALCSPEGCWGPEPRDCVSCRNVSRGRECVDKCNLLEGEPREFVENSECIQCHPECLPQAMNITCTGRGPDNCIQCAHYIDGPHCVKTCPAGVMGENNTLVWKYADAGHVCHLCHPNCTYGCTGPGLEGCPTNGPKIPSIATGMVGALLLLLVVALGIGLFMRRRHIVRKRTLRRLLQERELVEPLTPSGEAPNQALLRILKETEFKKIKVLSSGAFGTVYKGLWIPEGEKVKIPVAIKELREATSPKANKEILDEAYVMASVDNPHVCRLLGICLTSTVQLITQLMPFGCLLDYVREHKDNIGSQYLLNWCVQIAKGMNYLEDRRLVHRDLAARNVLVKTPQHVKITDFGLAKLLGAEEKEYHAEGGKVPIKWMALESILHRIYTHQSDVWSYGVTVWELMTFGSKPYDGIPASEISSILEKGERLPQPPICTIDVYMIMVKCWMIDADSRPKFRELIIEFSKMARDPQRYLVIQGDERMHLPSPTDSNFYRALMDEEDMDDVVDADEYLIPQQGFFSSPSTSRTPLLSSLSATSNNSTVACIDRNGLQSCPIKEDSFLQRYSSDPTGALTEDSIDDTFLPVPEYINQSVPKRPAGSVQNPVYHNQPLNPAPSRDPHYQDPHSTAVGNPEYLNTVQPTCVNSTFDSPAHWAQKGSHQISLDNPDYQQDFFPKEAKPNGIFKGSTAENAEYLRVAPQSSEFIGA

ERBB2 = ERBB2 (Homo sapiens, UniProt P04626)
ERK1 = ERK1 (Homo sapiens, UniProt P27361)
ERK8 = ERK8 (Homo sapiens, UniProt Q8TD08)
FES = FES (Homo sapiens, UniProt P07332)
HCK = HCK (Homo sapiens, UniProt P08631)
HIPK4 = HIPK4 (Homo sapiens, UniProt Q8NE63)
INSR = INSR (Homo sapiens, UniProt P06213)
ITK = ITK (Homo sapiens, UniProt Q08881)
Sequence of ITK (Q08881 whole entry): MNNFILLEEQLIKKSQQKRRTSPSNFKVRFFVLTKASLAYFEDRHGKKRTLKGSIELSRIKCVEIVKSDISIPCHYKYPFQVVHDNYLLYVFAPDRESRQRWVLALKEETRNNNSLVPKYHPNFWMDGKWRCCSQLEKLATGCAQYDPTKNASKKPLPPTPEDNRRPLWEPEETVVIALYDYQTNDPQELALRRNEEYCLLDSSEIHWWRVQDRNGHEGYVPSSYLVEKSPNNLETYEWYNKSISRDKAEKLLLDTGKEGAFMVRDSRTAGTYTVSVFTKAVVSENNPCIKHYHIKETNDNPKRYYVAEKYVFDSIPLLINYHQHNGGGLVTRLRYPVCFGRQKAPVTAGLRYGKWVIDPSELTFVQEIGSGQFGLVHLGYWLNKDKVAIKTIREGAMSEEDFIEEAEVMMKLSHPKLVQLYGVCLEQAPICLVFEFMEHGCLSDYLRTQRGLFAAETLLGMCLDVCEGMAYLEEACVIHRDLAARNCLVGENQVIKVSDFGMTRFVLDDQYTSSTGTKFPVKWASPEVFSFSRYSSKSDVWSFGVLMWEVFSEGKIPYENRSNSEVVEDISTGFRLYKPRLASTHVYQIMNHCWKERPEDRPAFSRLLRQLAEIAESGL

KIT (V559D, V654A) = KIT (V559D, V654A) (Homo sapiens, UniProt P10721, V559D/V654A)
KIT-autoinhibited = KIT-autoinhibited (Homo sapiens, UniProt P10721)
Sequence of KIT-autoinhibited (P10721 546-976 limits assumed): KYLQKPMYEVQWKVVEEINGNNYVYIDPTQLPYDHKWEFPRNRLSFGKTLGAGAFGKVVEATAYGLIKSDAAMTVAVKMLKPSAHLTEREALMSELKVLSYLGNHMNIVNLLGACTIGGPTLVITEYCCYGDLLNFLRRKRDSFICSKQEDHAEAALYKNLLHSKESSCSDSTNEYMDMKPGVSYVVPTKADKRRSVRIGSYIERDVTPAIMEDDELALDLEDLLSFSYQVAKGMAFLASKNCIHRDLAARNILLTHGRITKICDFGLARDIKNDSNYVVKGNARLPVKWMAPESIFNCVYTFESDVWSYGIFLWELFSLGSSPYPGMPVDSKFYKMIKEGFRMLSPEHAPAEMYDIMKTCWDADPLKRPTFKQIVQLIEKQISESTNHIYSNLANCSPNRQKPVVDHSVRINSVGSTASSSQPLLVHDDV

MERTK = MERTK (Homo sapiens, UniProt Q12866)
Sequence of MERTK (Q12866 21-999): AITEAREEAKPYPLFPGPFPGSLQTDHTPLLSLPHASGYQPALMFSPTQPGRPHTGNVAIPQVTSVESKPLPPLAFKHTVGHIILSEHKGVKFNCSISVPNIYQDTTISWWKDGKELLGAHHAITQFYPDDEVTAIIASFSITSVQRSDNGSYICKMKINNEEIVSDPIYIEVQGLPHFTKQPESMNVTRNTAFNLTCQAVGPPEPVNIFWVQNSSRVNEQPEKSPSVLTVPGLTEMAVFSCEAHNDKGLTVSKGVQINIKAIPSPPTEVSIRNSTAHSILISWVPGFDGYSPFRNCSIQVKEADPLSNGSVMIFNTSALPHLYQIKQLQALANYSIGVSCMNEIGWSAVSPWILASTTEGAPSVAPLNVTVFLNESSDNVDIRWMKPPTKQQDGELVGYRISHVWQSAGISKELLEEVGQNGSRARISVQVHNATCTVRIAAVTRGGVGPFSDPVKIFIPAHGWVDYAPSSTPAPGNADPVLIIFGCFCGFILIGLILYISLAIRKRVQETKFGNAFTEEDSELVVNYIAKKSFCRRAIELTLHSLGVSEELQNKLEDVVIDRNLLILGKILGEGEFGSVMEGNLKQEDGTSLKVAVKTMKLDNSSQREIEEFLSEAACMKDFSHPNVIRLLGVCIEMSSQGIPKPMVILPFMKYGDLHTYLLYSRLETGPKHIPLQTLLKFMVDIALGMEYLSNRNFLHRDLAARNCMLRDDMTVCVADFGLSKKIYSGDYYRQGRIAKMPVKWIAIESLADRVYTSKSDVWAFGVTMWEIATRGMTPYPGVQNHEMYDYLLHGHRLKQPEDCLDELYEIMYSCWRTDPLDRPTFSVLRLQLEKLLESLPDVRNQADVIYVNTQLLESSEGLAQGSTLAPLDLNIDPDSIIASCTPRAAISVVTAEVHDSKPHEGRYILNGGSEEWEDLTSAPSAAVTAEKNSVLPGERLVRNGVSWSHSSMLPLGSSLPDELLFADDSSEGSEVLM

MET (M1250T) = MET (M1250T) (Homo sapiens, UniProt P08581, M1250T)
Sequence of MET (M1250T) (P08581 25-1390 M1250T): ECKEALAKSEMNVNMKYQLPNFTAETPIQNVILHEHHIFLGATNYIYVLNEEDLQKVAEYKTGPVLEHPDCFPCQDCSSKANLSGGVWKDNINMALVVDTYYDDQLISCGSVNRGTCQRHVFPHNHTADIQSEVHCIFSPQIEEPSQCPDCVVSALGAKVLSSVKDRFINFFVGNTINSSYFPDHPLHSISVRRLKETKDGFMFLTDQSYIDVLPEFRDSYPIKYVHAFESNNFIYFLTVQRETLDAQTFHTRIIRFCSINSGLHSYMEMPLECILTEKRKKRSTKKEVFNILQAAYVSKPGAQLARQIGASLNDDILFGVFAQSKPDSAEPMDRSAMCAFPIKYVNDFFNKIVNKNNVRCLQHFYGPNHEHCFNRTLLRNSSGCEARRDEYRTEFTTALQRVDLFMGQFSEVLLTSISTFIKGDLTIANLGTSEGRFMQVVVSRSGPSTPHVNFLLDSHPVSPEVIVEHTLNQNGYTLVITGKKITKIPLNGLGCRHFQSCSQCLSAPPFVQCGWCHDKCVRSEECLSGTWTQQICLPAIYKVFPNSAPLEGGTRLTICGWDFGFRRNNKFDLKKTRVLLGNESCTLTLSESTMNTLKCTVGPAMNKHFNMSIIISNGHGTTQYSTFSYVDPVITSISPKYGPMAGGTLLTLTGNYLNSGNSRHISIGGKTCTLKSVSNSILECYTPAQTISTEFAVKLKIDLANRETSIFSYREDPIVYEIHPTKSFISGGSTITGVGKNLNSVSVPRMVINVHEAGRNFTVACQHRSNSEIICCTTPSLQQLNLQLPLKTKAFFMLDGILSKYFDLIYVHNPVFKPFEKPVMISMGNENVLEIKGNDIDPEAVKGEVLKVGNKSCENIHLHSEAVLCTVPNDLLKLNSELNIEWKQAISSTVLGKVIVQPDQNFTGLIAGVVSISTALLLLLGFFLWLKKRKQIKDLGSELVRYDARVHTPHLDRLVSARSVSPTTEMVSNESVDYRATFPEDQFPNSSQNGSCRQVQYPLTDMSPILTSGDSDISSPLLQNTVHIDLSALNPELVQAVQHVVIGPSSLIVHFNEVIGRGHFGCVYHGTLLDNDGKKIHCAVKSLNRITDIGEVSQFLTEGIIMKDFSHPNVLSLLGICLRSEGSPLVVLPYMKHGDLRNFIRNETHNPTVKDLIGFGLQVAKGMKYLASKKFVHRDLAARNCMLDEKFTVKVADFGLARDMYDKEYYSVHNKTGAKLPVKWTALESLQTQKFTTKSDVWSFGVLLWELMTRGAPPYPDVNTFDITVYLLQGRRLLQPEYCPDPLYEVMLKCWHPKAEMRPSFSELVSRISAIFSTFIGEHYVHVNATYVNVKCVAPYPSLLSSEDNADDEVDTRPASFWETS

MST1R = MST1R (Homo sapiens, UniProt Q04912)
MST4 = MST4 (Homo sapiens, UniProt Q9P289)
MYO3A = MYO3A (Homo sapiens, UniProt Q8NEV4)
p38-beta = p38-beta (Homo sapiens, UniProt Q15759)
PAK4 = PAK4 (Homo sapiens, UniProt O96013)
PIK3CA (H1047Y) = PIK3CA (H1047Y) (Homo sapiens, UniProt P42336, H1047Y)
PIK3CD = PIK3CD (Homo sapiens, UniProt O00329)
PKAC-beta = PKAC-beta (Homo sapiens, UniProt P22694)
PRKCE = PRKCE (Homo sapiens, UniProt Q02156)
PRKG2 = PRKG2 (Homo sapiens, UniProt Q13237)
RIPK2 = RIPK2 (Homo sapiens, UniProt O43353)
[4] = biological target: RPS6KA5 Kin.Dom.1-N-terminal (Homo sapiens, UniProt O75582)
S6K1 = S6K1 (Homo sapiens, UniProt P23443)
[5] = biological target: T1, TYK2 JH2domain-pseudokinase (Homo sapiens, UniProt P29597)
T1 construct: JH2domain-pseudokinase; purchased DiscoveRx (KINOMEscan, LeadHunter Discovery services)

ULK3 = biological target: T2, ULK3 (Homo sapiens, UniProt Q6PHR2)
T2 construct: purchased DiscoveRx (KINOMEscan, LeadHunter Discovery services)

YES = YES (Homo sapiens, UniProt P07947)

Nc1ncc(-c2nc3ccccc3o2)c(-c2ccncc2)n1 [Comparative Compound 324, 5-(1,3-benzoxazol-2-yl)-4-(pyridine-4-yl)pyrimidin-2-amine]
remaining binding at 10 µM [1]: 33%
remaining binding at 10 µM [2]: 31%
remaining binding at 10 µM [3]: 78%
remaining binding at 10 µM (ACVR1): 100%
remaining binding at 10 µM (BTK): 92%
remaining binding at 10 µM (CAMK2B): 100%
remaining binding at 10 µM (CDK11): 100%
remaining binding at 10 µM (CDK8): 100%
remaining binding at 10 µM (CDK9): 83%
remaining binding at 10 µM (CLK2): 78%
remaining binding at 10 µM (DMPK): 100%
remaining binding at 10 µM (DMPK2): 82%
remaining binding at 10 µM (EGFR (G719S)): 63%
remaining binding at 10 µM (ERBB2): 99%
remaining binding at 10 µM (ERK1): 96%
remaining binding at 10 µM (ERK8): 99%
remaining binding at 10 µM (FES): 78%
remaining binding at 10 µM (HCK): 100%
remaining binding at 10 µM (HIPK4): 100%
remaining binding at 10 µM (INSR): 100%
remaining binding at 10 µM (ITK): 86%
remaining binding at 10 µM (KIT (V559D, V654A)): 79%
remaining binding at 10 µM (KIT-autoinhibited): 88%
remaining binding at 10 µM (MERTK): 99%
remaining binding at 10 µM (MET (M1250T)): 97%
remaining binding at 10 µM (MST1R): 85%
remaining binding at 10 µM (MST4): 68%
remaining binding at 10 µM (MYO3A): 98%
remaining binding at 10 µM (p38-beta): 100%
remaining binding at 10 µM (PAK4): 98%
remaining binding at 10 µM (PIK3CA (H1047Y)): 72%
remaining binding at 10 µM (PIK3CD): 100%
remaining binding at 10 µM (PKAC-beta): 95%
remaining binding at 10 µM (PRKCE): 95%
remaining binding at 10 µM (PRKG2): 82%
remaining binding at 10 µM (RIPK2): 85%
remaining binding at 10 µM [4]: 95%
remaining binding at 10 µM (S6K1): 90%
remaining binding at 10 µM [5]: 66%
remaining binding at 10 µM (ULK3): 100%
remaining binding at 10 µM (YES): 100%

CNc1c(C(N)=O)c2ccccn2c1C(=O)c1ccc(F)cc1 [Compound A, 2-methyl-amino-3-[(4-fluorophenyl)carbonyl]indolizine-1-carboxamide]
remaining binding at 10 µM [1]: 15%
remaining binding at 10 µM [2]: 11%
remaining binding at 10 µM [3]: 50%
remaining binding at 10 µM (ACVR1): 95%
remaining binding at 10 µM (BTK): 88%
remaining binding at 10 µM (CAMK2B): 62%
remaining binding at 10 µM (CDK11): 95%
remaining binding at 10 µM (CDK8): 99%
remaining binding at 10 µM (CDK9): 74%
remaining binding at 10 µM (CLK2): 57%
remaining binding at 10 µM (DMPK): 100%
remaining binding at 10 µM (DMPK2): 65%
remaining binding at 10 µM (EGFR (G719S)): 24%
remaining binding at 10 µM (ERBB2): 49%
remaining binding at 10 µM (ERK1): 100%
remaining binding at 10 µM (ERK8): 98%
remaining binding at 10 µM (FES): 75%
remaining binding at 10 µM (HCK): 65%
remaining binding at 10 µM (HIPK4): 83%
remaining binding at 10 µM (INSR): 100%
remaining binding at 10 µM (ITK): 78%
remaining binding at 10 µM (KIT (V559D, V654A)): 16%
remaining binding at 10 µM (KIT-autoinhibited): 78%
remaining binding at 10 µM (MERTK): 55%
remaining binding at 10 µM (MET (M1250T)): 83%
remaining binding at 10 µM (MST1R): 81%
remaining binding at 10 µM (MST4): 65%
remaining binding at 10 µM (MYO3A): 98%
remaining binding at 10 µM (p38-beta): 100%
remaining binding at 10 µM (PAK4): 89%
remaining binding at 10 µM (PIK3CA (H1047Y)): 80%
remaining binding at 10 µM (PIK3CD): 100%
remaining binding at 10 µM (PKAC-beta): 63%
remaining binding at 10 µM (PRKCE): 96%
remaining binding at 10 µM (PRKG2): 76%
remaining binding at 10 µM (RIPK2): 67%
remaining binding at 10 µM [4]: 96%
remaining binding at 10 µM (S6K1): 82%
remaining binding at 10 µM [5]: 86%
remaining binding at 10 µM (ULK3): 100%
remaining binding at 10 µM (YES): 78%
